Legend:
[1] = biological target: T1, human α1H T-type channels (Homo sapiens, UniProt O95180); test: T-type calcium channel block, whole cell patch clamp in HEK cells (α1H); assay type: cell-based; settings: HEK cells, patch clamp, mainly non-inactivated protocol; values above 10 μM shown as 10 μM; read-out: T-type Calcium Channel Block α1H IC50
T1 construct: expressed in transfected cells; host or cells: HEK 293

[2] = biological target: T2, human α1G T-type channels (Homo sapiens, UniProt O43497); test: T-type calcium channel block, whole cell patch clamp in HEK cells (α1G); assay type: cell-based; settings: HEK cells, patch clamp, mainly non-inactivated protocol; values above 10 μM shown as 10 μM, below 0.30 μM shown as 0.30 μM; read-out: T-type Calcium Channel Block α1G IC50
T2 construct: expressed in transfected cells; host or cells: HEK 293
T2 sequence (O43497 whole entry): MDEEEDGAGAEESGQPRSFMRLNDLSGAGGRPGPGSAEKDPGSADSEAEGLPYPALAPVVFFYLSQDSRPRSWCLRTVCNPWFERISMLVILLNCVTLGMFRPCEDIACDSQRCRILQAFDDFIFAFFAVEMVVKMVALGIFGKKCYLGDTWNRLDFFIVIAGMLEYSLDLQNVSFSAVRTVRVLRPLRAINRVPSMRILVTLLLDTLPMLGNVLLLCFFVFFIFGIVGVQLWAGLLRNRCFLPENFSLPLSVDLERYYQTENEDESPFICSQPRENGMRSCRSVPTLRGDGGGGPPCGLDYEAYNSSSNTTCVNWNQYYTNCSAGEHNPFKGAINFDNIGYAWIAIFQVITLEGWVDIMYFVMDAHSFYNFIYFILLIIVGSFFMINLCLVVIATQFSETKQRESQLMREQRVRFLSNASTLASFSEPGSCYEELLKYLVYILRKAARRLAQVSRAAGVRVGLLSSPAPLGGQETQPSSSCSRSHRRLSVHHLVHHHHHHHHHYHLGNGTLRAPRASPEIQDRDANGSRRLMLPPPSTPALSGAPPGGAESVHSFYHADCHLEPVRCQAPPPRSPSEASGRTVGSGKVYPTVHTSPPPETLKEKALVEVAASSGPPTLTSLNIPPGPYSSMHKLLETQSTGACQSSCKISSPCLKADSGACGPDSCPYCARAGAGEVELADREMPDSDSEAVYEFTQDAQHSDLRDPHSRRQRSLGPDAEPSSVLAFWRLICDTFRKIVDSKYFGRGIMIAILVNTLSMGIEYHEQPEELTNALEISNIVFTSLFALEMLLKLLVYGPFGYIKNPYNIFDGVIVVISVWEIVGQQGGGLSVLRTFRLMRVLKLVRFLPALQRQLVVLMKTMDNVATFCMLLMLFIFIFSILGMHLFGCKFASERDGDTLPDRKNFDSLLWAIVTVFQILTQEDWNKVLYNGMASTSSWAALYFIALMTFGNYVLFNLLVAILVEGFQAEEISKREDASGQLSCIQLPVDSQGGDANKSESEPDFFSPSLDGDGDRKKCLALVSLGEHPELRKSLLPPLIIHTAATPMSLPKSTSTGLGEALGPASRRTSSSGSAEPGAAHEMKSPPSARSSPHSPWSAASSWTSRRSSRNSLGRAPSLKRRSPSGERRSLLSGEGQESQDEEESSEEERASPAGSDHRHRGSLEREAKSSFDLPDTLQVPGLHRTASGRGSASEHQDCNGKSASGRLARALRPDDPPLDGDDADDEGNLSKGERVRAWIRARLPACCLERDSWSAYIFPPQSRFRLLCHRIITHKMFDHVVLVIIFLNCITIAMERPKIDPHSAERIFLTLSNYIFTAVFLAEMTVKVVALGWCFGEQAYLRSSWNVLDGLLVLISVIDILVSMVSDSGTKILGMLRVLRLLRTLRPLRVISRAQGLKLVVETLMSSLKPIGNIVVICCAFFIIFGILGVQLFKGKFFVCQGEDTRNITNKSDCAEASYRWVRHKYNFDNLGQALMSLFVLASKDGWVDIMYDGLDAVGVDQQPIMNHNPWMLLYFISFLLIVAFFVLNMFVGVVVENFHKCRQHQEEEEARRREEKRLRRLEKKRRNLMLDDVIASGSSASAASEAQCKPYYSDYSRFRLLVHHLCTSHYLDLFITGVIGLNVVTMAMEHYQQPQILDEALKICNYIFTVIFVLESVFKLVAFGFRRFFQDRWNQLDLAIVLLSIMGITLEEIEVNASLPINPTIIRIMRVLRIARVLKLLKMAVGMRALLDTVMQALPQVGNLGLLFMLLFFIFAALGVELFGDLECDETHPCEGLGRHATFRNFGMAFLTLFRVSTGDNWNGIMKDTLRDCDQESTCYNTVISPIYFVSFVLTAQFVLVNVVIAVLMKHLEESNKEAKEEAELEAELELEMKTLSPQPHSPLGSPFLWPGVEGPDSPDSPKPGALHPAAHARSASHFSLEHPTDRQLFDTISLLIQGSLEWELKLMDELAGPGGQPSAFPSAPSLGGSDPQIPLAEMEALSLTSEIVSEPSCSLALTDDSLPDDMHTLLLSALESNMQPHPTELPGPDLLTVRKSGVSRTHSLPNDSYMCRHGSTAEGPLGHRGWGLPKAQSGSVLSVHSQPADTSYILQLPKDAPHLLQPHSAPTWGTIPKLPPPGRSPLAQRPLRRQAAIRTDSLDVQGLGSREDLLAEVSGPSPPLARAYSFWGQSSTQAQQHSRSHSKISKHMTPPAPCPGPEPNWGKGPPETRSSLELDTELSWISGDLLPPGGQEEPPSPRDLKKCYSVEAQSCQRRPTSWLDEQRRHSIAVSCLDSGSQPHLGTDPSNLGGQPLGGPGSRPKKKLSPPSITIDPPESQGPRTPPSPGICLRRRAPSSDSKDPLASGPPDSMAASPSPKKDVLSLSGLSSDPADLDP

T1 sequence (O95180 whole entry): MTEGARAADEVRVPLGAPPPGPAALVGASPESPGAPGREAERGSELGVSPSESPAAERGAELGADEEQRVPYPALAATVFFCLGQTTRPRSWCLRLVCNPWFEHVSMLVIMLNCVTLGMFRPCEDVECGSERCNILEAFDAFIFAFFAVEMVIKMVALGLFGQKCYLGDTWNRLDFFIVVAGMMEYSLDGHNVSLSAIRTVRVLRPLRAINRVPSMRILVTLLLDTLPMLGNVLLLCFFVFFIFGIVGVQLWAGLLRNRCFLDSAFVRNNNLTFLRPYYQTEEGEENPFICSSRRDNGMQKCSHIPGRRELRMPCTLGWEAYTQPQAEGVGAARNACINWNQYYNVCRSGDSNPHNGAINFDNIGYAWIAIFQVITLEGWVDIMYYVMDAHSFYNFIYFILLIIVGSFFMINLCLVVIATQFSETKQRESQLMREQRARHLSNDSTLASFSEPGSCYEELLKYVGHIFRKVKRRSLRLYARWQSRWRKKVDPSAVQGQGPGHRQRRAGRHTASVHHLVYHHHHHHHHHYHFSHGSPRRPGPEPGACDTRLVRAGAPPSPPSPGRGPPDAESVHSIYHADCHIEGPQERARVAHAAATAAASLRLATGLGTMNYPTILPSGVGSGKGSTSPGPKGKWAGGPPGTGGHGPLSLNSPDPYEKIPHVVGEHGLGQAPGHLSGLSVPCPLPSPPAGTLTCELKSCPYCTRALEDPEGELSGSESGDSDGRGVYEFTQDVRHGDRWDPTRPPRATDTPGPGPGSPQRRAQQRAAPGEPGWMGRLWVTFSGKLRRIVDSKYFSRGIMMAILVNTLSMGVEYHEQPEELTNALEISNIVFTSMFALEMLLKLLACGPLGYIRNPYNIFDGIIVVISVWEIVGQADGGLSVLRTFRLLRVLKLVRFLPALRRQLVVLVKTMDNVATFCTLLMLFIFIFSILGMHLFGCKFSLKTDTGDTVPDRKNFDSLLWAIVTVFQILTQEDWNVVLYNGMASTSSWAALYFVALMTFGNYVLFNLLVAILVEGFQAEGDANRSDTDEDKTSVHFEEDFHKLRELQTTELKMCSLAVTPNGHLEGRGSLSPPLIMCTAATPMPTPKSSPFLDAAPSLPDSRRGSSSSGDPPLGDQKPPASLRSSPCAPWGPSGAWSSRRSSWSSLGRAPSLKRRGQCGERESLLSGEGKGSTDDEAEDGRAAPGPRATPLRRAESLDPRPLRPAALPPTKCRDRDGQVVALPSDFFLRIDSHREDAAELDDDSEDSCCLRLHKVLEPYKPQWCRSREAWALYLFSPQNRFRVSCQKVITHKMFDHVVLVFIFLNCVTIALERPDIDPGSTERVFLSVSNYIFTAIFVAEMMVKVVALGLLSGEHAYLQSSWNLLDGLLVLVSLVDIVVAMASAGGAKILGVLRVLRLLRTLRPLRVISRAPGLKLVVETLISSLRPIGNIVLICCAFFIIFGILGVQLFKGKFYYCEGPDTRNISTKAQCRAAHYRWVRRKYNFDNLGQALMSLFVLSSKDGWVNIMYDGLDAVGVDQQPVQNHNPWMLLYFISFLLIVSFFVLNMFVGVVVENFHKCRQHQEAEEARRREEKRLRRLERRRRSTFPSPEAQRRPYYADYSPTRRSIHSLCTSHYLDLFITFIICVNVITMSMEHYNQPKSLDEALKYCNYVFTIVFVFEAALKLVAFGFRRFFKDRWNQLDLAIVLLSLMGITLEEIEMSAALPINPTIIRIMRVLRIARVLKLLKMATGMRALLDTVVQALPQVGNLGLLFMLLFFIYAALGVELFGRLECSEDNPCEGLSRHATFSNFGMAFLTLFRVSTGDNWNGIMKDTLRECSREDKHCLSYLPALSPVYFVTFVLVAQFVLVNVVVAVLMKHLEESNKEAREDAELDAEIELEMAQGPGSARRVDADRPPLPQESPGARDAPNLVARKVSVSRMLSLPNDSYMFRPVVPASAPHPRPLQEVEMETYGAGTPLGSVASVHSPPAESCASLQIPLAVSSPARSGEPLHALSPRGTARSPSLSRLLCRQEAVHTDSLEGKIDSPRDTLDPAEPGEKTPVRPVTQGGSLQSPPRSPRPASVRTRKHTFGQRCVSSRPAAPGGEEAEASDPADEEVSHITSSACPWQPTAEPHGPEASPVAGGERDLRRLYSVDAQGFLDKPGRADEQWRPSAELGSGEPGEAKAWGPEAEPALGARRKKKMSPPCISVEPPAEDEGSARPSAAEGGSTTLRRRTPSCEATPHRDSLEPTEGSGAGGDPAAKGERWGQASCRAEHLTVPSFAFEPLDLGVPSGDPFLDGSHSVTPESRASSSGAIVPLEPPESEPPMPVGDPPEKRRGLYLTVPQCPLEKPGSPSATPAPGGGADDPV

Row | Compound | IC50 [1] | IC50 [2]
1 | COc1cc(OC)cc(C(=O)NCC2CCN(CC(=O)NC(C)C)CC2)c1 [Compound 439, N-((1-(2-(isopropylamino)-2-oxoethyl)piperidin-4-yl)methyl)-3,5-dimethoxybenzamide] | 2170 nM | 3280 nM
2 | CC(C)NC(=O)CN1CCC(CNC(=O)c2cccc(Cl)c2)CC1 [Compound 442, 3-chloro-N-((1-(2-(isopropylamino)-2-oxoethyl)piperidin-4-yl)methyl)benzamide] | > 10000 nM | > 10000 nM
3 | CC(C)NC(=O)CN1CCC(CNC(=O)c2cccc(OC(F)(F)F)c2)CC1 [Compound 444, N-((1-(2-(isopropylamino)-2-oxoethyl)piperidin-4-yl)methyl)-3-(trifluoromethoxy)benzamide] | > 10000 nM | 7400 nM
4 | CCCNC(=O)CN1CCC(CNC(=O)c2cc(C)cc(C)c2)CC1 [Compound 445, 3,5-dimethyl-N-((1-(2-oxo-2-(propylamino)ethyl)piperidin-4-yl)methyl)benzamide] | > 10000 nM | > 10000 nM
5 | CCCNC(=O)CN1CCC(CNC(=O)c2cc(C)cc(F)c2)CC1 [Compound 446, 3-fluoro-5-methyl-N-((1-(2-oxo-2-(propylamino)ethyl)piperidin-4-yl)methyl)benzamide] | > 10000 nM | > 10000 nM
6 | CCCNC(=O)CN1CCC(CNC(=O)c2cc(OC)cc(OC)c2)CC1 [Compound 448, 3,5-dimethoxy-N-((1-(2-oxo-2-(propylamino)ethyl)piperidin-4-yl)methyl)benzamide] | 4640 nM | 9730 nM
7 | CCCNC(=O)CN1CCC(CNC(=O)c2cccc(Br)c2)CC1 [Compound 450, 3-bromo-N-((1-(2-oxo-2-(propylamino)ethyl)piperidin-4-yl)methyl)benzamide] | > 10000 nM | 8880 nM
8 | CCCNC(=O)CN1CCC(CNC(=O)c2cccc(Cl)c2)CC1 [Compound 451, 3-chloro-N-((1-(2-oxo-2-(propylamino)ethyl)piperidin-4-yl)methyl)benzamide] | > 10000 nM | > 10000 nM
9 | Cc1cc(C)cc(C(=O)NCC2CCN(CC(=O)NC(C)(C)C(F)(F)F)CC2)c1 [Compound 454, 3,5-dimethyl-N-((1-(2-oxo-2-(1,1,1-trifluoro-2-methylpropan-2-ylamino)ethyl)piperidin-4-yl)methyl)benzamide] | 40 nM | < 300 nM
10 | CC(C)(NC(=O)CN1CCC(CNC(=O)c2cccc(C(F)(F)F)c2)CC1)C(F)(F)F [Compound 458, N-((1-(2-oxo-2-(1,1,1-trifluoro-2-methylpropan-2-ylamino)ethyl)piperidin-4-yl)methyl)-3-(trifluoromethyl)benzamide] | 40 nM | < 300 nM
11 | CC(C)(NC(=O)CN1CCC(CNC(=O)c2cccc(Br)c2)CC1)C(F)(F)F [Compound 459, 3-bromo-N-((1-(2-oxo-2-(1,1,1-trifluoro-2-methylpropan-2-ylamino)ethyl)piperidin-4-yl)methyl)benzamide] | 20 nM | < 300 nM
12 | Cc1cc(C)cc(C(=O)NCC2CCN(CC(=O)N3CCC[C@H]3C(F)(F)F)CC2)c1 [Compound 463, (S)-3,5-dimethyl-N-((1-(2-oxo-2-(2-(trifluoromethyl)pyrrolidin-1-yl)ethyl)piperidin-4-yl)methyl) benzamide] | 210 nM | < 300 nM
13 | O=C(NCC1CCN(CC(=O)N2CCC[C@H]2C(F)(F)F)CC1)c1cccc(C(F)(F)F)c1 [Compound 467, (S)-N-((1-(2-oxo-2-(2-(trifluoromethyl)pyrrolidin-1-yl)ethyl)piperidin-4-yl)methyl)-3-(trifluoromethyl)benzamide] | 170 nM | < 300 nM
14 | CC1(NC(=O)CN2CCC(CNC(=O)c3cccc(Br)c3)CC2)CCC1 [Compound 480, 3-bromo-N-((1-(2-(1-methylcyclobutylamino)-2-oxoethyl)piperidin-4-yl)methyl) benzamide] | 180 nM | < 300 nM

Next, values leading:

Row | IC50 [1] | IC50 [2] | Compound
15 | 90 nM | < 300 nM | O=C(NCC1CCN(CCNC(=O)C2(C(F)(F)F)CCC2)CC1)c1cc(F)cc(C(F)(F)F)c1 [Compound 435, 3-fluoro-5-(trifluoromethyl)-N-((1-(2-(1-(trifluoromethyl)cyclobutanecarboxamido)ethyl)piperidin-4-yl)methyl)benzamide]
16 | > 10000 nM | > 10000 nM | Cc1cc(C)cc(C(=O)NCC2CCN(CC(=O)NC(C)C)CC2)c1 [Compound 436, N-((1-(2-(isopropylamino)-2-oxoethyl)piperidin-4-yl)methyl)-3,5-dimethylbenzamide]
17 | > 10000 nM | > 10000 nM | Cc1cc(F)cc(C(=O)NCC2CCN(CC(=O)NC(C)C)CC2)c1 [Compound 437, 3-fluoro-N-((1-(2-(isopropylamino)-2-oxoethyl)piperidin-4-yl)methyl)-5-methylbenzamide]
18 | 1710 nM | 3910 nM | COc1cc(F)cc(C(=O)NCC2CCN(CC(=O)NC(C)C)CC2)c1 [Compound 438, 3-fluoro-N-((1-(2-(isopropylamino)-2-oxoethyl)piperidin-4-yl)methyl)-5-methoxybenzamide]
19 | > 10000 nM | > 10000 nM | CC(C)NC(=O)CN1CCC(CNC(=O)c2cccc(C(F)(F)F)c2)CC1 [Compound 440, N-((1-(2-(isopropylamino)-2-oxoethyl)piperidin-4-yl)methyl)-3-(trifluoromethyl)benzamide]
20 | > 10000 nM | 9480 nM | CC(C)NC(=O)CN1CCC(CNC(=O)c2cccc(Br)c2)CC1 [Compound 441, 3-bromo-N-((1-(2-(isopropylamino)-2-oxoethyl)piperidin-4-yl)methyl)benzamide]
21 | 2810 nM | 3310 nM | CC(C)NC(=O)CN1CCC(CNC(=O)c2cc(F)cc(Cl)c2)CC1 [Compound 443, 3-chloro-5-fluoro-N-((1-(2-(isopropyl-amino)-2-oxoethyl)piperidin-4-yl)methyl)benzamide]
22 | 3080 nM | 9150 nM | CCCNC(=O)CN1CCC(CNC(=O)c2cc(F)cc(OC)c2)CC1 [Compound 447, 3-fluoro-5-methoxy-N-((1-(2-oxo-2-(propylamino)ethyl)piperidin-4-yl)methyl)benzamide]
23 | > 10000 nM | > 10000 nM | CCCNC(=O)CN1CCC(CNC(=O)c2cccc(C(F)(F)F)c2)CC1 [Compound 449, N-((1-(2-oxo-2-(propylamino)ethyl)piperidin-4-yl)methyl)-3-(trifluoromethyl)benzamide]
24 | 7920 nM | 4240 nM | CCCNC(=O)CN1CCC(CNC(=O)c2cc(F)cc(Cl)c2)CC1 [Compound 452, 3-chloro-5-fluoro-N-((1-(2-oxo-2-(propylamino)ethyl)piperidin-4-yl)methyl)benzamide]
25 | > 10000 nM | 8240 nM | CCCNC(=O)CN1CCC(CNC(=O)c2cccc(OC(F)(F)F)c2)CC1 [Compound 453, N-((1-(2-oxo-2-(proyplamino)ethyl)piperidin-4-yl)methyl)-3-(trifluoromethoxy)benzamide]
26 | 30 nM | < 300 nM | Cc1cc(F)cc(C(=O)NCC2CCN(CC(=O)NC(C)(C)C(F)(F)F)CC2)c1 [Compound 455, 3-fluoro-5-methyl-N-((1-(2-oxo-2-(1,1,1-trifluoro-2-methylpropan-2-ylamino)ethyl)piperidin-4-yl)methyl)benzamide]
27 | 20 nM | < 300 nM | COc1cc(F)cc(C(=O)NCC2CCN(CC(=O)NC(C)(C)C(F)(F)F)CC2)c1 [Compound 456, 3-fluoro-5-methoxy-N-((1-(2-oxo-2-(1,1,1-trifluoro-2-methylpropan-2-ylamino)ethyl)piperidin-4-yl)methyl)benzamide]
28 | 140 nM | < 300 nM | Cc1cc(F)cc(C(=O)NCC2CCN(CC(=O)N3CCC[C@H]3C(F)(F)F)CC2)c1 [Compound 464, (S)-3-fluoro-5-methyl-N-((1-(2-oxo-2-(2-(trifluoromethyl)pyrrolidin-1-yl)ethyl)piperidin-4-yl)methyl)benzamide]
29 | 170 nM | < 300 nM | COc1cc(F)cc(C(=O)NCC2CCN(CC(=O)N3CCC[C@H]3C(F)(F)F)CC2)c1 [Compound 465, (S)-3-fluoro-5-methoxy-N-((1-(2-oxo-2-(2-(trifluoromethyl)pyrrolidin-1-yl)ethyl)piperidin-4-yl)methyl)benzamide]
30 | 270 nM | < 300 nM | COc1cc(OC)cc(C(=O)NCC2CCN(CC(=O)N3CCC[C@H]3C(F)(F)F)CC2)c1 [Compound 466, (S)-3,5-dimethoxy-N-((1-(2-oxo-2-(2-(trifluoromethyl)pyrrolidin-1-yl)ethyl)piperidin-4-yl)methyl)benzamide]
31 | 40 nM | < 300 nM | O=C(NCC1CCN(CCNC(=O)C2(C(F)(F)F)CC2)CC1)c1cccc(OC(F)(F)F)c1 [Compound 474, 3-(trifluoromethoxy)-N-((1-(2-(1-(trifluoromethyl)cyclopropanecarbox-amido)ethyl)piperidin-4-yl)methyl) benzamide]
32 | 170 nM | < 300 nM | Cc1cc(C)cc(C(=O)NCC2CCN(CC(=O)NC3(C)CCC3)CC2)c1 [Compound 475, 3,5-dimethyl-N-((1-(2-(1-methylcyclobutylamino)-2-oxoethyl)piperidin-4-yl)methyl) benzamide]
33 | 150 nM | < 300 nM | CC1(NC(=O)CN2CCC(CNC(=O)c3cccc(C(F)(F)F)c3)CC2)CCC1 [Compound 479, N-((1-(2-(1-methylcyclobutylamino)-2-oxoethyl)piperidin-4-yl)methyl)-3-(trifluoromethyl)benzamide]
34 | 250 nM | < 300 nM | CC1(NC(=O)CN2CCC(CNC(=O)c3cccc(Cl)c3)CC2)CCC1 [Compound 481, 3-chloro-N-((1-(2-(1-methylcyclo-butylamino)-2-oxoethyl)piperidin-4-yl)methyl)benzamide]

From patent publication US8569344B2, “N-piperidinyl acetamide derivatives as calcium channel blockers” (Zalicus Pharmaceuticals Ltd., priority 2008, dated 2013)
